The source of these data is paper PMC10818749, “Toxicity Studies of Cardiac-Targeting Peptide Reveal a Robust Safety Profile” (Pharmaceutics, 2024).

Experiment [1] concerns the target T1, HEK-Kir2.1 (Homo sapiens, UniProt P63252).
T1 construct: host or cells: HEK
Type of experiment: cell-based. The following applies: CTP 0.1 to 30 µM; HEK cells; step to -120mV; 0.1% Pluronic F-68.

Experiment [2] deals with T2, ADRB1 (Homo sapiens, UniProt P08588).
T2 construct: host or cells: cAMP Hunter cell line
The experiment can be described thus: ADRB1 GPCR cAMP modulation assay. The format is cell-based. The following applies: compared to the controls. How it is done:
GPCR cAMP Modulation Assays: cAMP Hunter cell lines were grown, plated, and subjected to Eurofins’ DiscoverX HitHunter cAMP XS+ assay. Gs agonist activity, Gi agonist activity, and antagonist activity-induced assays were read using chemiluminescent signal detection. The percentage of activity was calculated for Gs and Gi agonist assays, and the percentage of inhibition was calculated for Gs antagonist assays. […]
cAMP Second ary Messenger Assay pound results in the release of calcium from intracellular stores and DiscoverX has developed a panel of cell lines stably expressing non- an increase in dye fluorescence that is measured in real-time. tagged GPCRs that endogenously signal through cAMP. […]
The enzyme is split into two complementary portions: Enzyme Ac-ceptor (EA) and Enzyme Donor (ED). […] Active enzyme can then convert a chemilumines-cent substrate, generating an output signal detectable on a standard The NHR is tagged with the ProLink™ (PK) component of our EFC microplate reader. assay system, and the SRCP domain is fused to the Enzyme Ac-ceptor component (EA) expressed in the nucleus. […]

Experiment [3] concerns the target T3, COX1 (Homo sapiens, UniProt P23219).
T3 construct: purchased BPS Bioscience
Kind of experiment: COX1 enzymatic assay. The format is biochemical. The settings on record: up to 30 µM. How it is done:
Enzymatic Assays: AChE, COX1, COX2, MAOA, PDE3A, and PDE4D2 activity assays were performed to determine CTP effects on each individual enzyme. Fluorescence was read using a PerkinElmer Envision, and percentage inhibition and compound activity calculated. […]
in complementation with EA generating a unit of active β-gal and based assay for the detection of dopamine, norepinephrine or sero-production of a chemiluminescent signal upon the addition of Path- tonin transporter activity in cells expressing these transporters. The Hunter detection reagents. kit employs a fluorescent substrate that mimics the biogenic amine neurotransmitters that are taken into the cell through these specific transporters, resulting in increased intracellular fluorescence inten-sity. […]
KINOMEscan® Assay fluorescence for improved signal/noise ratio. […]
Compounds that bind the kinase active site and directly (sterically) be monitored within a single experiment. or indirectly (allosterically) prevent kinase binding to the immobi-lized ligand, will reduce the amount of kinase captured on the solid Calcium Assay […]
kinase have no effect on the amount of kinase captured on the of changes in intracellular calcium. […] Upon stimulation, a quantitative, precise and ultra-sensitive qPCR method that detects the receptor signals release of intracellular calcium, which results in the associated DNA label (D). […]

Ends that are not written are not given here.

T3 sequence (P23219 24-599): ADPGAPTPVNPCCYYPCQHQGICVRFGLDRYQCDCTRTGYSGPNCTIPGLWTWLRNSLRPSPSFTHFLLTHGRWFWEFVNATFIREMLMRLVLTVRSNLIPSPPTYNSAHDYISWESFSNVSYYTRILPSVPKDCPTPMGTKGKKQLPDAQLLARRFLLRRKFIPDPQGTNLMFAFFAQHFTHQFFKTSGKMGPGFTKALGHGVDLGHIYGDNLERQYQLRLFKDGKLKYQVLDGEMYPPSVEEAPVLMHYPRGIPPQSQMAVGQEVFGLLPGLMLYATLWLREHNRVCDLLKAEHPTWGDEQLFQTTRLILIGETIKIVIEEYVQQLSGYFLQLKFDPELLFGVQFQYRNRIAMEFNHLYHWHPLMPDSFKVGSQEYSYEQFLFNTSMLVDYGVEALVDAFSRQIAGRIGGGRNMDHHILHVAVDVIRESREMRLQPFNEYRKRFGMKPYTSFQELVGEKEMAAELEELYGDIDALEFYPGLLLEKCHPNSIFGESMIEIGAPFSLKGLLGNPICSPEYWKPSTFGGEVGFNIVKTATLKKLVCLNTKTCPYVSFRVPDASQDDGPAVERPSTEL
T2 sequence (P08588 whole entry): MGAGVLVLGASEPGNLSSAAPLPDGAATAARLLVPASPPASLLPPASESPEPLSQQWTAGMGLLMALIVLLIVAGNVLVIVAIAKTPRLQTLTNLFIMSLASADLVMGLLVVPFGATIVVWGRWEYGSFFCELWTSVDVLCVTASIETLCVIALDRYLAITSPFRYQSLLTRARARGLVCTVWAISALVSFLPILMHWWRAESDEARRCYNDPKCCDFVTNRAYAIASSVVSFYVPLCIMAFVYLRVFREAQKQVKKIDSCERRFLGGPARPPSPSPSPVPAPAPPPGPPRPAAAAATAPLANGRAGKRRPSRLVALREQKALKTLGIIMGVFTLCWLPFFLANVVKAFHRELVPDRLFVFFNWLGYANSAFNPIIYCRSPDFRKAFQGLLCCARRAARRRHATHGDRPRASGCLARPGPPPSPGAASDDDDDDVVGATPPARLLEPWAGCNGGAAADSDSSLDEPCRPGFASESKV
T1 sequence (P63252 whole entry): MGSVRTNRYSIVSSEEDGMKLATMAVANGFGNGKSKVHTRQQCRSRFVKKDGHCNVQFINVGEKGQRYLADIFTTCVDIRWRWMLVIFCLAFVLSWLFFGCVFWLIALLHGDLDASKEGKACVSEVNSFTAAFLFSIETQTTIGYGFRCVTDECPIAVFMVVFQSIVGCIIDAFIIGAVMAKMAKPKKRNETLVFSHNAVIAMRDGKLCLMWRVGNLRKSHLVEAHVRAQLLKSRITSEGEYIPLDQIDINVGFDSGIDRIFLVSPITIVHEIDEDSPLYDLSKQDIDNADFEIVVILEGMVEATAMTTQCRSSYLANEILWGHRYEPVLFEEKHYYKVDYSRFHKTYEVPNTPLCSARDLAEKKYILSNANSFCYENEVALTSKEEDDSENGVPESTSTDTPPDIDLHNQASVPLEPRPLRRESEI

For the sequence APWHLSSQYSRT [CTP], in experiment [1], the “Estimated IC50” value was “N/C (Not calculable, inhibition >25% was not observed.)”. For the same sequence, in experiment [2], the “agonist or antagonist action” value is “no significant action as either an agonist or antagonist”. For the same sequence, in experiment [3], the inhibition result is reported as “some inhibition of COX1 was noted, although it did not reach the set significance threshold”.
